Results: patent publication US9493542B2, “Methods of using ERBB2 conjugate peptides” (Augusta University Research Institute, Inc., priority 2013, dated 2016)
One block for each molecule: values may come before it.

What was measured:
HSP90 = HSP90 inhibition by 17-AAG: ErbB2 and Erbin levels and ErbB2 complex; type: cell-based
Description: Erbin regulation of ErbB2 stability was investigated. […] Intriguingly, the effect of 17-AAG could not be blocked by Erbin overexpression (data not shown), indicating Erbin acts upstream or at level of HSP90. ErbB2, HSP90, and Erbin can form a ternary complex necessary for ErbB2 stability. HSP90 as well as Erbin was detectable in the complex of ErbB2 and Erbin interacted HSP90 (data not shown). […] Conversely, Erbin knockdown inhibited the HSP90-ErbB2 interaction (data not shown).

Erbin-ErbB2 interaction = molecular target: T1, Erbin-ErbB2 interaction (Homo sapiens, UniProt Q96RT1); test: Co-immunoprecipitation of Flag-ErbB2 with Myc-Erbin from lysates incubated with peptide; type: binding; conditions: in vitro; lysates with Flag-ErbB2 or Myc-Erbin, anti-Myc precipitation; compared to control peptide
T1 construct: HEK293 cells were transfected with Flag-ErbB2 alone or together with full length Erbin; expressed in transfected cells; host or cells: Transfected cells
T1 sequence (Q96RT1 whole entry): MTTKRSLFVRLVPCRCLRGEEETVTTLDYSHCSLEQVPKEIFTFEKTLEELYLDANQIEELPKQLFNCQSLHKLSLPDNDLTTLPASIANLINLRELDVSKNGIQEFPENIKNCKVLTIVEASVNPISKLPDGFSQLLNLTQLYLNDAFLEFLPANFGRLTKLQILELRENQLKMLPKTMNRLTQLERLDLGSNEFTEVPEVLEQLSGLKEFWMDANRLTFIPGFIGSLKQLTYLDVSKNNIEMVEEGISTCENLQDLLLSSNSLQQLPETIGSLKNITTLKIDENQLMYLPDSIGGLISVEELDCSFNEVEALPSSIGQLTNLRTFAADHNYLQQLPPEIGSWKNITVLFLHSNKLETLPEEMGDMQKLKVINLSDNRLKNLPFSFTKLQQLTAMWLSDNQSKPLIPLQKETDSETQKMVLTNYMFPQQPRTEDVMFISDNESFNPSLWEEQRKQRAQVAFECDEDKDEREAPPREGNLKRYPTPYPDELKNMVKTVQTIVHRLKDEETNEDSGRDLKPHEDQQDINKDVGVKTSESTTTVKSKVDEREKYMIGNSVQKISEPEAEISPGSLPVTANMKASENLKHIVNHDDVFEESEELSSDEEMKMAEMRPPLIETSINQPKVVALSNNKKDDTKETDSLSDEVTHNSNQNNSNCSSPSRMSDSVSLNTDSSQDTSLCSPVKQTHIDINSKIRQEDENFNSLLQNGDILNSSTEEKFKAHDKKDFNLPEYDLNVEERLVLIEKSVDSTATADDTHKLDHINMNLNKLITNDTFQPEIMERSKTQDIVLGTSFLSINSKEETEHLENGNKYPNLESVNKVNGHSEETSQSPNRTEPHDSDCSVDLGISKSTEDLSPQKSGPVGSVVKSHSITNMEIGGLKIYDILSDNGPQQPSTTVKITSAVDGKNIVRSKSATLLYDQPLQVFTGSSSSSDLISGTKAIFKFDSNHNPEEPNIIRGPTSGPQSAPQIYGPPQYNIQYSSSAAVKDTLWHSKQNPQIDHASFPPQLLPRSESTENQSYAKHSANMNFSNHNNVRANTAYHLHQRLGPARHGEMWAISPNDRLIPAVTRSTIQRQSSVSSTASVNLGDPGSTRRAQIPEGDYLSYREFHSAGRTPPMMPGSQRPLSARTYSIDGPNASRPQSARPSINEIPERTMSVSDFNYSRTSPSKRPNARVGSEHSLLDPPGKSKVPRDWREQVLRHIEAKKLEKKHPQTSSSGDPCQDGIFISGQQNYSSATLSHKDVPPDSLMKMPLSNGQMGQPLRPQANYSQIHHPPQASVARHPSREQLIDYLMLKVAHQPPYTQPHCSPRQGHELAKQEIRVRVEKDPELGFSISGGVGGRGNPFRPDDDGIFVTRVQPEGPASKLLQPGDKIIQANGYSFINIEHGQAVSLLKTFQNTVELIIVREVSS
Description: FIGS. 5A-5H show the requirement of the Erbin-ErbB2 interaction for ErbB2 stabilization and autophosphorylation and ErbB2-dependent proliferation of breast cancer cells. (A)-(B) Quantitative analysis of pErbB2 and ErbB2 levels in western blots showing decreased ErbB2 expression and autophosphorylation by Erbin-PDZ domain. HEK293 cells were transfected with Flag-ErbB2 with increasing doses of Myc-Erbin-PDZ. Cell lysates were blotted with antibodies against ErbB2, pErbB2 and Myc. (C) Quantitative analysis of western blot data showing the disruption of the Erbin-ErbB2 interaction by B2tail. Lysates of transfected cells expressing Flag-ErbB2 or Myc-Erbin were incubated with control peptide (Ctrl) or B2tail. The Erbin complex was precipitated using anti-Myc antibody and probed for ErbB2. n=3, *P<0.05, compared to Ctrl. […] Cells were treated with 20 μM TAT-Ctrl or TAT-B2tail peptide for 24 hours and analyzed by MTS assay. […]
For immunoprecipitation, cells were lysed in lysis buffer (50 mM Tris-HCl, pH 7.4, 150 mM NaCl, 1% NP-40, 0.5% Triton-X-100, 1 mM PMSF, 1 mM EDTA, 5 mM NaF, 2 mM Na3VO4, and protease inhibitor cocktails). […] Immunoreactive bands were visualized using enhanced chemiluminescence (Pierce), scanned with an Epson 1680 scanner, and analyzed with Image J. […]

ErbB2 [1] = test: ErbB2 stability and pErbB2 in SKBR3 cells after cycloheximide (Western blot); type: cell-based; design: dose or concentration left out as unconfirmed; conditions: TAT-B2tail for 1 hour prior to CHX, compared to TAT-Ctrl
SKBR3 cells = test: MTS proliferation assay, SKBR3 cells; type: cell-based; conditions: 20 μM peptide, 24 hours
Description: (§1) FIGS. 5A-5H show the requirement of the Erbin-ErbB2 interaction for ErbB2 stabilization and autophosphorylation and ErbB2-dependent proliferation of breast cancer cells. (A)-(B) Quantitative analysis of pErbB2 and ErbB2 levels in western blots showing decreased ErbB2 expression and autophosphorylation by Erbin-PDZ domain. HEK293 cells were transfected with Flag-ErbB2 with increasing doses of Myc-Erbin-PDZ. Cell lysates were blotted with antibodies against ErbB2, pErbB2 and Myc. (C) Quantitative analysis of western blot data showing the disruption of the Erbin-ErbB2 interaction by B2tail. Lysates of transfected cells expressing Flag-ErbB2 or Myc-Erbin were incubated with control peptide (Ctrl) or B2tail. The Erbin complex was precipitated using anti-Myc antibody and probed for ErbB2. n=3, *P<0.05, compared to Ctrl. […] SKBR3 cells were incubated with 20 μM TAT-Ctrl or TAT-B2tail, for 1 hour prior to analysis of ErbB2 stability. n=3, *P<0.05, **P<0.01, compared to TAT-Ctrl. […] Cells were treated with 20 μM TAT-Ctrl or TAT-B2tail peptide for 24 hours and analyzed by MTS assay. […] (F) PDZ deletion inhibited tumorigenesis in MMTV-neu mice on incipient congenic FVB background. […]
(§2) Cell proliferation was measured by MTS assay, as described previously (Zhang, S., et al., Nature medicine, 17, 461-469, 2011). […] Optical density was measured at wavelength of 490 nm.

BT474 cells = test: MTS proliferation assay, BT474 cells; type: cell-based, human; conditions: 20 μM peptide, 24 hours
Description: as §1, §2

[2] = system: Human breast BT474 cancer cells; test: BT474 breast tumor growth in fat pads of nude mice, intratumoral peptide injection; type: in vivo; conditions: 25 μl 5 mM peptide injected into tumors twice a week, one month, versus TAT-Ctrl
Protocol: FIG. 7 is a microscopy image of a breast cancer tumor treated with Tat-ErbB2tail. TAT-ErbB2tail peptide inhibits breast tumor growth in nude mice. Human breast BT474 cancer cells (100 μl, 3.0×10^5 cells in 50% Matri-gel) were injected into fat pads of both sides of female mice. Resulting tumors were injected 2 weeks later with control (TAT-ctrl, left) or B2tail (TAT-B2tail, right) peptide (25 u.l, 5 mM), twice a week. Shown were representative images before injection (A, A′) and one month after injection (B, B′).
The results identify the ErbB2-Erbin interaction as a therapeutic target for fighting ErbB2-positive breast cancers. To test this, B2tail was tested for the ability to inhibit tumor growth in mice. Human breast BT474 cancer cells (100 ul, 3.0×10^5 cells in 50% Matri-gel) were injected into fat pads of both sides of virgin, female mice. Resulting tumors were injected 2 weeks later with control (TAT-Ctrl) or B2tail (TAT-B2tail) peptide (25 μl, 5 mM), twice a week[[.]].

ErbB2 [3] = molecular target: T2, ErbB2 (Homo sapiens, UniProt P04626); test: Coexpression of Erbin PDZ domain with Flag-ErbB2 in HEK293 cells (Western blot); type: cell-based; conditions: Flag-ErbB2 with increasing doses of Myc-Erbin-PDZ
T2 construct: expressed in transfected cells; host or cells: HEK293
Description: as §1, with “background. Erbin^ΔC/ΔC mice were backcrossed for 5 generations with FVB wild types and then crossed with FVB-congenic MMTV-neu.” for “background.”

[4] = 17-AAG treatment (data not shown)

Molecule: C=CCNC1=C2C[C@@H](C)C[C@H](OC)[C@H](O)[C@@H](C)/C=C(\C)[C@H](OC(N)=O)[C@@H](OC)/C=C\C=C(/C)C(=O)NC(=CC1=O)C2=O [17-AAG]
- ErbB2 degradation (HSP90; [4]): resulted in ErbB2 degradation
- Erbin levels (HSP90; [4]): no effect
- ErbB2 level after brief treatment (HSP90; 17-AAG, 1 hour): without altering ErbB2 level
- amount of Erbin in the ErbB2 complex (HSP90; 17-AAG, 1 hour): reduced

Molecule: PTAENPEYLGLDVPV [B2tail]
- disruption of the Erbin-ErbB2 interaction (Erbin-ErbB2 interaction): able to disrupt the Erbin-ErbB2 interaction

Molecule: YGRKKRRQRRR-G-PTAENPEYLGLDVPV [TAT-B2tail]
- ErbB2 reduction (stability) after CHX (ErbB2 [1]): ErbB2 reduction was faster
- pErbB2 levels (ErbB2 [1]): pErbB2 levels were reduced
- decrease of proliferation (SKBR3 cells): about 40%
- decrease of proliferation (BT474 cells): ~35%
- size of breast tumors [2]: appeared to decrease

- ErbB2 phosphorylation (pErbB2) (ErbB2 [3]): reduced
- levels of ErbB2 (ErbB2 [3]): reduced
B1: PDZ domain of Erbin: Erbin PDZ domain, starts at amino acid 1318 of Erbin, expressed as Myc-tagged construct in HEK293 cells (protein)
chain: AKQEIRVRVEKDPELGFSISGGVGGRGNPFRPDDDGIFVTRVQPEGPASKLLQPGDKIIQANGYSFINIEHGQAVSLLKTFQNTVELIIVREV
modifications: Myc tag; PDZ domain
notes: Erbin PDZ domain, starts at amino acid 1318 of Erbin, expressed as Myc-tagged construct in HEK293 cells
